Measured values reported in PMC9044946 (Journal of Virology, 2022).
Counter-ions that a name gives are not always drawn.

What was measured:
[1] = orally administered three times a day; cited from earlier work
[2] = system: TMPRSS2-induced production of S2′; assay type: cell-based; details: acceptor cells ACE2 and TMPRSS2, 120 μM
[3] = system: S-mediated cell-to-cell fusion; assay type: cell-based; details: acceptor cells ACE2 plus TMPRSS2, camostat 120 μM

Structure (SMILES) | Effect on COVID-19 symptoms [1] | Effect on enhanced TMPRSS2-induced production of S2′ with WT S [2] | Effect on TMPRSS2-enhanced fusion with μAS1/S2 [3] | Effect on TMPRSS2-reduced fusion with WT S [3]
CN(C)C(=O)COC(=O)Cc1ccc(OC(=O)c2ccc(NC(=N)N)cc2)cc1 [camostat mesylate] | did not ameliorate COVID-19 symptoms |  |  | 
CN(C)C(=O)COC(=O)Cc1ccc(OC(=O)c2ccc(NC(=N)N)cc2)cc1 [camostat] |  | eliminated | largely attenuated | completely restored
